Experimental data from patent US20090312280A1.

Columns and labels:
[1] = system: PC-3 (Prostate); assay: cell survival / MTT combination cytotoxicity; assay type: cell-based, human; details: PC-3; IC50 cytotoxic agent alone / IC50 combination; Compound 1 at 8x EC50 (360 nM)
[2] = system: HT29 (Colon); assay: cell survival / MTT combination cytotoxicity; assay type: cell-based, human; details: HT29; IC50 cytotoxic agent alone / IC50 combination; Compound 1 at 8x EC50 (360 nM)
[3] = system: Colo205 (Colon); assay: cell survival / MTT combination cytotoxicity; assay type: cell-based, human; details: Colo205; IC50 cytotoxic agent alone / IC50 combination; Compound 1 at 8x EC50 (360 nM)
[4] = system: MDA-MB-231 (Breast); assay: cell survival / MTT combination cytotoxicity; assay type: cell-based, human; details: IC50 cytotoxic agent alone / IC50 combination, Compound 1 at 8x EC50 (360 nM)
[5] = system: Colo205 human colon carcinoma xenografts; assay: in vivo chemopotentiation, Colo205 xenograft; parameters: species or system mice
Method: Experiments 1 to 39 were conducted in mice xenografts. Experiments 40-42 were conducted in rat xenografts. Specifically, irinotecan combination studies were conducted in HT29 and Colo205. Gemcitabine combination studies were conducted in Colo205. Docetaxel combination studies were conducted in Colo205.
Gemcitabine and irinotecan are DNA directed cytotoxics known to induce checkpoint activation and subsequent S/G2M-phase arrest. […] Docetaxel is an antimitotics where recent discoveries describe a novel function for CHK1 in the mitotic checkpoint.

[6] = system: K562 (Leukemia); assay: cell survival / MTT combination cytotoxicity; assay type: cell-based, human; details: IC50 cytotoxic agent alone / IC50 combination, Compound 1 at 4x EC50 (180 nM)
[7] = Exp 1, gemcitabine 120 mg/kg IP Q3d×4, Compound 1 0 mg/kg
[8] = Exp 2, gemcitabine 120 mg/kg IP Q3d×4 + Compound 1 4 mg/kg IP Q3d×4 24 h after
[9] = Exp 3, gemcitabine 120 mg/kg IP Q3d×4 + Compound 1 8 mg/kg IP Q3d×4 24 h after
[10] = Exp 4, gemcitabine 120 mg/kg IP Q3d×4 + Compound 1 12 mg/kg IP Q3d×4 24 h after
[11] = Exp 5, gemcitabine 120 mg/kg IP Q3d×4 + Compound 1 20 mg/kg IP Q3d×4 24 h after
[12] = Exp 6, gemcitabine 120 mg/kg IP Q3d×4 + Compound 1 24 mg/kg IP Q3d×4 24 h after
[13] = Exp 7, gemcitabine 120 mg/kg IP Q3d×4 + Compound 1 40 mg/kg IP Q3d×4 24 h after

Question: How did the “PF50 (Potentiation Factor50)” value [1] turn out when `Nc1ccn([C@@H]2O[C@H](CO)[C@@H](O)C2(F)F)c(=O)n1` [Gemcitabine] was run?
Answer: The value was 12.2.

Question: And the “PF50 (Potentiation Factor50)” value [2]?
Answer: Its value is 9.

Question: And the “PF50 (Potentiation Factor50)” value [3]?
Answer: The value was 11.3.

Question: What about the “PF50 (Potentiation Factor50)” value [4] of the same compound?
Answer: Its value is 3.6.

Question: What about the “% TGI” value [5, 7] of the same compound?
Answer: Its value is 58%.

Question: And the “Growth delay” value [5, 7]?
Answer: The value was 8 days.

Question: What about the “% TGI” value [5, 8] of the same compound?
Answer: Its value is 58%.

Question: What about the “Growth delay” value [5, 8] of the same compound?
Answer: Its value is 8 days.

Question: And the “% TGI” value [5, 9]?
Answer: Its value is 63%.

Question: What about the “% poten TGI” value [5, 9] of the same compound?
Answer: Its value is 12%.

Question: What about the “Growth delay” value [5, 9] of the same compound?
Answer: Its value is 8 days.

Question: What about the “% TGI” value [5, 10] of the same compound?
Answer: Its value is 68%.

Question: What about the “% poten TGI” value [5, 10] of the same compound?
Answer: Its value is 23%.

Question: What about the “Growth delay” value [5, 10] of the same compound?
Answer: The value was 8.5 days.

Question: What about the “% TGI” value [5, 11] of the same compound?
Answer: Its value is 76%.

Question: And the “% TTP” value [5, 11]?
Answer: Its value is 17%.

Question: And the “% poten TGI” value [5, 11]?
Answer: Its value is 43%.

Question: What about the “Growth delay” value [5, 11] of the same compound?
Answer: Its value is 12 days.

Question: What about the “% TGI” value [5, 12] of the same compound?
Answer: Its value is 81%.

Question: And the “% TTP” value [5, 12]?
Answer: Its value is 17%.

Question: What about the “% poten TGI” value [5, 12] of the same compound?
Answer: The value was 55%.

Question: And the “Growth delay” value [5, 12]?
Answer: Its value is 12 days.

Question: What about the “% TGI” value [5, 13] of the same compound?
Answer: Its value is 90%.

Question: And the “% TTP” value [5, 13]?
Answer: The value was 50%.

Question: What about the “% poten TGI” value [5, 13] of the same compound?
Answer: The value was 75%.

Question: And the “Growth delay” value [5, 13]?
Answer: The value was 20 days.

Question: What about the “PF50 (Potentiation Factor50)” value [6] of the same compound?
Answer: The value was 5.6.
